Measured values as given in patent publication US6515022B2, “Use of inhaled retinoids in the treatment of lung diseases” (Sloan-Kettering Institute for Cancer Research, priority 1996, dated 2003).
Values after ≈ are worked out from the molar mass of the structure shown. Read-outs that look alike come from different tables or passages of the source.

Key:
[1] = physchem; conditions: HCFC-123 without alkylamine, organic solvent or mixture
[2] = Attempts at aqueous solutions (MOLECUSOL, ammonium salt); type: physicochemical; conditions: solutions containing 45% MOLECUSOL (modified beta cyclodextrin)
Excerpt: Next, because of a report that the solubility of retinol (vitamin A) in water could be increased by addition of modified beta cyclodextrin (MOLECUSOL®), we next tried to prepare aqueous solutions of all-trans retinoic acid using MOLECUSOL® to enhance the solubility. […] Similarly, efforts to solubilize all-trans retinoic acid in aqueous solution using phosphatidylcholine and phosphatidylethanolamine produced a viscous colloid which was unsuited for aerosol administration.
We next tried to use salts of the retinoids to obtain a water-soluble product for aerosol generation. When all-trans retinoic acid is treated with ammonium hydroxide, a water-soluble ammonium salt is obtained. The pH of solutions of this salt is too high (pH >10), however, for direct administration as an aerosol. Neutralization of the solution after dissolution of the retinoid led to the formation of a precipitate, both in the presence and absence of added beta cyclodextrin.

[3] = Tissue/plasma concentrations after intra-tracheal instillation (HPLC); type: in vivo, Sprague-Dawley rats; conditions: Sprague-Dawley, other: intra-tracheal instillation, rat, 100 μg intra-tracheal instillation
Procedure: To evaluate the bioavailability of retinoids delivered by inhalation, 100 μl of an aqueous solution containing 100 μg of all-trans retinoic acid was administered via intra-tracheal instillation to 3 Sprague-Dawley rats, each weighing approximately 200 g. One rat was then sacrificed at three time points: 1, 6 and 24 hours after treatment. At the time of sacrifice, the chest cavity was opened, both lungs and trachea were removed en bloc, and the right and left lungs were separated by dissection. The liver was also removed, along with a sample of blood obtained by cardiac puncture. The blood sample was separated by centrifugation, and plasma plus each of the aforementioned tissues were frozen for later analysis. Subsequently, the tissue was homogenized, and the homogenized tissue and plasma were extracted with ethanol.

[4] = in vivo; conditions: rat
Procedure: The biodistribution and pharmacokinetics of an inhaled formulation of all-trans retinoic acid were compared to both intra-tracheal and intravenous administration. Anesthetized (i.p. pentobarbitol 50 mg/kg) male Sprague-Dawley rats weighing 300 to 700 grams were treated by administration of all-trans retinoic acid by inhalation, iv injection or intra-tracheal injection. Inhaled and intra-tracheal injections were given through an endotracheal tube placed under direct vision over a guidewire as described by Weksler et al., J. Appl. Physiol. 76: 1823-1825 (1994). IV doses were given by catheter injection via the right external jugular vein.
For inhalation, all-trans retinoic acid was solublized in hydrofluorocarbon 123 using tetramethylamunonium hydroxide to a concentration of 5 mg/ml, and combined with hydrofluoroalkane 134a as propellant, for a final concentration of 1.5 mg per 1.475 grams of propellant solution. […] An identical inhaler containing propellant mixture without drug was used as a control. […] This procedure was also repeated with an angiocatheter fitted to the apparatus. The catheter was subsequently rinsed with 10 ml of isopropanol, which was also collected. The three solutions were then assayed for all-trans retinoic acid concentrations in order to determine the amount of drug delivered through the apparatus, as well as any residual drug that was bound to the angiocatheter. We defined the area under the concentration times-time curve (AUC) for animals who received intra-tracheal all-trans retinoic acid as 100% effective dose delivery to the lung.
For injection, an aqueous solution of all-trans retinoic acid was prepared in 20% ethanol, 10% Tween 20 and 1 mM NH4OH, for a final concentration of […] all-trans retinoic acid per ml of solution. A mixture of 20% ethanol and 10% Tween 20 served as a control.
Animals were grouped into three experimental groups and two control groups. The control groups received no treatment or a control inhalant containing no all-trans retinoic acid. Animals in the groups receiving iv or intra-tracheal injections each received a single dose containing 250 μg all-trans retinoic acid. Animals in the group treated with the multidose inhaler each received three doses for a total of 147 μg of all-trans retinoic acid.

[5] = physchem; conditions: organic solvent or mixture, thermodynamic from solid
Procedure: Maximum solubility was determined by weighing the residue remaining after evaporation of the solvent.

[6] = Histologic examination of lungs and trachea after single-dose administration; conditions: rat
Procedure: Animals were sacrificed at 5 minutes and at 1, 2, 4 and 6 hours, and blood and liver and lung tissue were harvested for analysis by high performance liquid chromatography (HPLC) and histology. In addition, animals receiving the inhalant were sacrificed at 24 hours post-treatment.

[7] = Solubility in chlorofluorocarbons with alkylamine solubilizers
[8] = left lung, read-out: Left Lung concentration
[9] = liver, read-out: Liver concentration
[10] = plasma, read-out: Plasma concentration
[11] = right lung, read-out: Right Lung concentration
[12] = trachea, read-out: Trachea concentration
[13] = male, Sprague-Dawley, inhaled or intranasal, 147 ug
[14] = male, Sprague-Dawley, iv, 250 ug

For `CC1=C(/C=C/C(C)=C/C=C/C(C)=C/C(=O)O)C(C)(C)CCC1` [all-trans retinoic acid], the solubility [1] was ~2000 µg/mL (≈ 6.66 mM), the “Solubility in aqueous solution” value [2] was “enhance the solubility of the all-trans retinoic acid to a useful level” and the concentration at 1 hour [3, 8] was 928 ng/g. For the same compound, the concentration at 6 hours [3, 8] was 56 ng/g, the concentration at 24 hours [3, 8] was 22 ng/g and the concentration at 1 hour [3, 9] was 233 ng/g. It also gave a concentration at 6 hours [3, 9] of 24 ng/g, a concentration at 24 hours [3, 9] of 23 ng/g and a concentration at 1 hour [3, 10] of 123 ng/mL. For the same compound, the concentration at 24 hours [3, 10] was 178 ng/mL, the concentration at 1 hour [3, 11] was 773 ng/g and the concentration at 6 hours [3, 11] was 91 ng/g. For the same compound, the concentration at 24 hours [3, 11] was 21 ng/g, the concentration at 1 hour [3, 12] was 2860 ng/g and the concentration at 6 hours [3, 12] was 96 ng/g. For the same compound, the concentration at 24 hours [3, 12] was 30 ng/g, the “Lung AUC, intra-tracheal route relative to aerosolized route” value ([4]; male, Sprague-Dawley) was 100 times and the concentration at 1 hour ([4]; male, Sprague-Dawley) was 68 ± 44 ng/mL. The AUC ([4]; male, Sprague-Dawley, 250 ug) was 191 ng·h/mL, the “Liver AUC” value ([4]; male, Sprague-Dawley, 250 ug) was 2532 ng-hr/gm and the “Lung AUC” value ([4]; male, Sprague-Dawley, 250 ug) was 26972 ng-hr/gm. For the same compound, the half-life ([4]; male, Sprague-Dawley, 250 ug, Liver T½) was 22 h, the half-life ([4]; male, Sprague-Dawley, 250 ug, Lung T½) was 17.7 h and the half-life ([4]; male, Sprague-Dawley, 250 ug, Plasma T½) was 1.9 h. The AUC [4, 13] was 171 ng·h/mL, the “Liver AUC” value [4, 13] was 2307 ng-hr/gm and the “Lung AUC” value [4, 13] was 262 ng-hr/gm. For the same compound, the half-life ([4]; male, Sprague-Dawley, inhaled or intranasal, 147 ug, Lung T½) was 5.4 h, the half-life ([4]; male, Sprague-Dawley, inhaled or intranasal, 147 ug, Plasma T½) was 3 h and the “Total absorption (percent effective dose: inhaled AUC / intra-tracheal AUC)” value ([4]; male, Sprague-Dawley, inhaled or intranasal, 250 ug) was 1-2%. For the same compound, the AUC [4, 14] was 1380 ng·h/mL, the “Liver AUC” value [4, 14] was 4724 ng-hr/gm and the “Liver T½” value [4, 14] was 0.8 h. For the same compound, the “Lung AUC” value [4, 14] was 11910 ng-hr/gm, the half-life ([4]; male, Sprague-Dawley, iv, 250 ug, Liver T½) was 1 h and the half-life ([4]; male, Sprague-Dawley, iv, 250 ug, Lung T½) was 1.9 h. For the same compound, the “Lung AUC, intra-tracheal route relative to iv route” value [4] was “twice”, the solubility ([5]; ethyl acetate) was 10000 µg/mL (≈ 33.3 mM) and the solubility ([5]; methylene chloride) was 5000 µg/mL (≈ 16.6 mM). For the same compound, the “Histologic examination of lungs and traches” value [6] was “no focal irritation attributable to the drug”, the “Maximum Solubility” value ([7]; HCFC-123, alkylamine 1.44 mg/ml) was “˜17 mg/ml” and the “Maximum Solubility” value ([7]; HCFC-123, alkylamine 7.22 mg/ml) was “˜44 mg/ml”.
